The record followed here is patent publication US10004701B2, “Methods and compositions for treating infection” (UNIVERSITY OF ROCHESTER, priority 2012, dated 2018).

Common to all, as to test: AK assay 384-well format, Prestwick library screening
For assay [1], the system named is E. cloacae. The assay is classed as cell-based, Enterobacter cloacae. Particulars: Enterobacter cloacae, 3 h, 50 μM final drug concentration.
Assay [2] has as its system E. coli. Format: cell-based, Escherichia coli. Particulars: Escherichia coli, 3 h, 50 μM final drug concentration.
For assay [3], the system named is E. faecium. The assay is classed as cell-based, Enterococcus faecium. Particulars: Enterococcus faecium, 3 h, 50 μM final drug concentration.
Assay [4] deals with P. aeruginosa. Format: cell-based, Pseudomonas aeruginosa. Particulars: Pseudomonas aeruginosa, 3 h, 50 μM final drug concentration.
The test system of assay [5] is K. pneumoniae. The assay is classed as cell-based, Klebsiella pneumoniae. Particulars: Klebsiella pneumoniae, 3 h, 50 μM final drug concentration.
For assay [6], the system named is S. aureus strain USA300-0114. Format: cell-based, Staphylococcus aureus. Particulars: Staphylococcus aureus, USA300, 3 h, 50 μM final drug concentration.
For assay [7], the system named is A. baumannii strain 98-37-09. The assay is classed as cell-based, Acinetobacter baumannii. Particulars: Acinetobacter baumannii, 983709, 3 h, 50 μM final drug concentration.
Where [8] appears, read: planktonic, cutoff for positive-scoring molecules 3-fold increase, read-out: AK-based Prestwick Library Screening Results, E. cloacae (fold increase in extracellular AK activity).
The mark [9] stands for this setting: planktonic, cutoff for positive-scoring molecules 3-fold increase, read-out: AK-based Prestwick Library Screening Results, E. coli (fold increase in extracellular AK activity).
[10] abbreviates: planktonic, cutoff for positive-scoring molecules 3-fold increase, read-out: AK-based Prestwick Library Screening Results, E. faecium (fold increase in extracellular AK activity).
Setting [11] is: planktonic, cutoff for positive-scoring molecules 3-fold increase, read-out: AK-based Prestwick Library Screening Results, P. aeruginosa (fold increase in extracellular AK activity).
Where [12] appears, read: planktonic, cutoff for positive-scoring molecules 3-fold increase, read-out: AK-based Prestwick Library Screening Results, K. pneumoniae (fold increase in extracellular AK activity).
Where [13] appears, read: planktonic, cutoff for positive-scoring molecules 3-fold increase, read-out: AK-based Prestwick Library Screening Results, S. aureus (fold increase in extracellular AK activity).
Setting [14] is: planktonic, cutoff for positive-scoring molecules 3-fold increase, read-out: AK-based Prestwick Library Screening Results, A. baumannii (fold increase in extracellular AK activity).
Setting [15] is: cutoff for positive-scoring molecules 3-fold increase, read-out: AK-based Prestwick Library Screening Results, E. cloacae (fold increase in extracellular AK activity).
[16] abbreviates: cutoff for positive-scoring molecules 3-fold increase, read-out: AK-based Prestwick Library Screening Results, E. coli (fold increase in extracellular AK activity).
Setting [17] is: cutoff for positive-scoring molecules 3-fold increase, read-out: AK-based Prestwick Library Screening Results, E. faecium (fold increase in extracellular AK activity).
[18] abbreviates: cutoff for positive-scoring molecules 3-fold increase, read-out: AK-based Prestwick Library Screening Results, P. aeruginosa (fold increase in extracellular AK activity).
Where [19] appears, read: cutoff for positive-scoring molecules 3-fold increase, read-out: AK-based Prestwick Library Screening Results, K. pneumoniae (fold increase in extracellular AK activity).
Setting [20] is: cutoff for positive-scoring molecules 3-fold increase, read-out: AK-based Prestwick Library Screening Results, S. aureus (fold increase in extracellular AK activity).
[21] abbreviates: cutoff for positive-scoring molecules 3-fold increase, read-out: AK-based Prestwick Library Screening Results, A. baumannii (fold increase in extracellular AK activity).

Counter-ions that a name gives are not always drawn. Like-named read-outs stand apart in the source and are kept apart here.

On to `COc1cc(NS(=O)(=O)c2ccc(N)cc2)nc(OC)n1` [Sulfadimethoxine], for which the fold induction at 50 µM in assay [1] (setting [8]) is 0.4; in assay [2] (setting [9]) it was 0.6; in assay [3] (setting [10]), 0.9; in assay [4] (setting [11]), 0.4; in assay [5] (setting [12]) it was 0.5; in assay [6] (setting [13]) it was 0.5. For the same compound, in assay [7] (setting [14]), the fold induction at 50 µM amounted to 0.9.
Consider `COc1ncnc(NS(=O)(=O)c2ccc(N)cc2)c1OC` [Sulfadoxine], for which the fold induction at 50 µM in assay [1] (planktonic E. cloacae, positive cutoff 3-fold increase, read-out: AK-based Prestwick library screening result, E. cloacae (fold increase in extracellular AK activity)) was determined as 1.3; in assay [2] (planktonic E. coli, positive cutoff 3-fold increase, read-out: AK-based Prestwick library screening result, E. coli (fold increase in extracellular AK activity)), 1; in assay [3] (planktonic E. faecium, positive cutoff 3-fold increase, read-out: AK-based Prestwick library screening result, E. faecium (fold increase in extracellular AK activity)) it was 1; in assay [4] (planktonic P. aeruginosa, positive cutoff 3-fold increase, read-out: AK-based Prestwick library screening result, P. aeruginosa (fold increase in extracellular AK activity)), 1; in assay [5] (planktonic K. pneumoniae, positive cutoff 3-fold increase, read-out: AK-based Prestwick library screening result, K. pneumoniae (fold increase in extracellular AK activity)), 1; in assay [6] (planktonic S. aureus, positive cutoff 3-fold increase, read-out: AK-based Prestwick library screening result, S. aureus (fold increase in extracellular AK activity)), 0.9. In addition, the fold induction at 50 µM in assay [7] (planktonic A. baumannii, positive cutoff 3-fold increase, read-out: AK-based Prestwick library screening result, A. baumannii (fold increase in extracellular AK activity)) came to 2.9.
With `[H]/N=C(/N)NS(=O)(=O)c1ccc(N)cc1` [Sulfaguanidine], the fold induction at 50 µM in assay [1] (384-well format, cutoff for positive-scoring molecules 3-fold increase, read-out: AK-based Prestwick Library Screening Results, E. cloacae (increase in extracellular AK activity)) stood at 0.4; in assay [2] (384-well format, cutoff for positive-scoring molecules 3-fold increase, read-out: AK-based Prestwick Library Screening Results, E. coli (increase in extracellular AK activity)) it was 0.5; in assay [3] (384-well format, cutoff for positive-scoring molecules 3-fold increase, read-out: AK-based Prestwick Library Screening Results, E. faecium (increase in extracellular AK activity)) it was 1; in assay [4] (384-well format, cutoff for positive-scoring molecules 3-fold increase, read-out: AK-based Prestwick Library Screening Results, P. aeruginosa (increase in extracellular AK activity)) it was 0.5; in assay [5] (384-well format, cutoff for positive-scoring molecules 3-fold increase, read-out: AK-based Prestwick Library Screening Results, K. pneumoniae (increase in extracellular AK activity)), 0.6; in assay [6] (384-well format, cutoff for positive-scoring molecules 3-fold increase, read-out: AK-based Prestwick Library Screening Results, S. aureus (increase in extracellular AK activity)), 0.5. Moreover, in assay [7] (384-well format, cutoff for positive-scoring molecules 3-fold increase, read-out: AK-based Prestwick Library Screening Results, A. baumannii (increase in extracellular AK activity)), the fold induction at 50 µM was found to be 0.5.
Regarding `Cc1ccnc(NS(=O)(=O)c2ccc(N)cc2)n1` [Sulfamerazine], the fold induction at 50 µM is 1.9 in assay [1] (setting [15]); 1.1 in assay [2] (setting [16]); 1 in assay [3] (setting [17]); 1 in assay [4] (setting [18]); 1 in assay [5] (setting [19]); 0.9 in assay [6] (setting [20]). For the same compound, the fold induction at 50 µM in assay [7] (setting [21]) is 2.1.
Consider `COc1cnc(NS(=O)(=O)c2ccc(N)cc2)nc1` [Sulfameter], for which the fold induction at 50 µM in assay [1] (planktonic, […], read-out: AK-based Prestwick Library Screening Results, E. cloacae (fold increase in extracellular AK activity)) was found to be 1.2; in assay [2] (planktonic, […], read-out: AK-based Prestwick Library Screening Results, E. coli (fold increase in extracellular AK activity)) it was 1.3; in assay [3] (planktonic, […], read-out: AK-based Prestwick Library Screening Results, E. faecium (fold increase in extracellular AK activity)), 1; in assay [4] (planktonic, […], read-out: AK-based Prestwick Library Screening Results, P. aeruginosa (fold increase in extracellular AK activity)), 1.1; in assay [5] (planktonic, […], read-out: AK-based Prestwick Library Screening Results, K. pneumoniae (fold increase in extracellular AK activity)), 1; in assay [6] (planktonic, […], read-out: AK-based Prestwick Library Screening Results, S. aureus (fold increase in extracellular AK activity)) it was 1.2. Also, in assay [7] (planktonic, […], read-out: AK-based Prestwick Library Screening Results, A. baumannii (fold increase in extracellular AK activity)), the fold induction at 50 µM is 2.3.
As for `Cc1cc(C)nc(NS(=O)(=O)c2ccc(N)cc2)n1` [Sulfamethazine sodium salt], the fold induction at 50 µM in assay [1] (setting [15]) is 1.4; in assay [2] (setting [16]) it was 1; in assay [3] (setting [17]), 1; in assay [4] (setting [18]), 1.1; in assay [5] (setting [19]), 1; in assay [6] (setting [20]), 1.4. For the same compound, the fold induction at 50 µM in assay [7] (setting [21]) is 1.6.
Regarding `Cc1nnc(NS(=O)(=O)c2ccc(N)cc2)s1` [Sulfamethizole], the fold induction at 50 µM in assay [1] (setting [8]) was 0.9; in assay [2] (setting [9]) it was 1; in assay [3] (setting [10]), 0.9; in assay [4] (setting [11]), 0.8; in assay [5] (setting [12]) it was 0.7; in assay [6] (setting [13]) it was 0.7. In addition, in assay [7] (setting [14]), the fold induction at 50 µM was 1.4.
Turning to `COc1ccc(NS(=O)(=O)c2ccc(N)cc2)nn1` [Sulfamethoxypyridazine], the fold induction at 50 µM in assay [1] (planktonic, cutoff for positive 3-fold increase, read-out: AK-based Prestwick Library Screening Results, E. cloacae (fold increase in extracellular AK activity)) was 0.3; in assay [2] (planktonic, cutoff for positive 3-fold increase, read-out: AK-based Prestwick Library Screening Results, E. coli (fold increase in extracellular AK activity)) it was 0.5; in assay [3] (planktonic, cutoff for positive 3-fold increase, read-out: AK-based Prestwick Library Screening Results, E. faecium (fold increase in extracellular AK activity)), 0.9; in assay [4] (planktonic, cutoff for positive 3-fold increase, read-out: AK-based Prestwick Library Screening Results, P. aeruginosa (fold increase in extracellular AK activity)) it was 0.3; in assay [5] (planktonic, cutoff for positive 3-fold increase, read-out: AK-based Prestwick Library Screening Results, K. pneumoniae (fold increase in extracellular AK activity)), 0.5; in assay [6] (planktonic, cutoff for positive 3-fold increase, read-out: AK-based Prestwick Library Screening Results, S. aureus (fold increase in extracellular AK activity)), 0.4. Further, the fold induction at 50 µM in assay [7] (planktonic, cutoff for positive 3-fold increase, read-out: AK-based Prestwick Library Screening Results, A. baumannii (fold increase in extracellular AK activity)) was 0.7.
In the case of `COc1cc(NS(=O)(=O)c2ccc(N)cc2)ncn1` [Sulfamonomethoxine], the fold induction at 50 µM in assay [1] (setting [8]) is 1.1; in assay [2] (setting [9]) it was 0.9; in assay [3] (setting [10]), 0.9; in assay [4] (setting [11]), 1; in assay [5] (setting [12]), 0.8; in assay [6] (setting [13]), 0.7. Further, the fold induction at 50 µM in assay [7] (setting [14]) worked out at 1.6.
With `Nc1ccc(S(N)(=O)=O)cc1` [Sulfanilamide], the fold induction at 50 µM in assay [1] (setting [8]) is 0.4; in assay [2] (setting [9]), 0.5; in assay [3] (setting [10]), 0.9; in assay [4] (setting [11]), 0.5; in assay [5] (setting [12]) it was 0.6; in assay [6] (setting [13]), 0.4. Also, the fold induction at 50 µM in assay [7] (setting [14]) amounted to 1.5.
